Source: US4780412A, “Fibrinolytic enzymes produced from established non-cancerous cell lines” (priority 1982, dated 1988)
Where a name gives a salt, the structure may show the parent alone. Square brackets hold non-standard residues; d marks the D form. Peptide text beside a SMILES is read from it. * marks the point of attachment. pNA = O=[N+]([O-])c1ccc(N*)cc1; Bz = O=C(c1ccccc1)*

Assays:
[1] = molecular target: T1, GPK derived enzyme, partially purified (fibrinolytic enzyme / plasminogen activator from cell line GPK, CNCMI-222) (Cavia porcellus, UniProt H0W0Z7); assay: Amidolytic activity on chromogenic substrates (release of p-nitroaniline at 405 nm); type: biochemical
T1 construct: zinc chelate agarose, partially purified from culture supernatant
Experimental: The amidolytic activity of the GPK derived enzyme was determined using various chromogenic substrates. […] Z

[2] = molecular target: Melanoma (malignant melanoma plasminogen activator, HEPA) (Homo sapiens, UniProt P00750); details: values quoted in literature; cited from earlier work
[3] = molecular target: T2, GPK derived enzyme (from cell line GPK, CNCMI-222) (Cavia porcellus, UniProt H0W0Z7); assay: Inhibition of GPK-derived enzyme activity by 2-mercaptoethanol (fibrin plate, fibrin clot lysis time); type: biochemical; details: 2-mercaptoethanol at 10 mM or above, incubated 15 min at 37° C., pH 7.8; residual activity on plasminogen containing fibrin plate and by clot lysis time
T2 construct: residual activity on plasminogen-containing fibrin plate
Experimental: Various dilutions of the stock solution of 2-mercaptoethanol were prepared in 0.05M sodium diethylbarbiturate buffer, pH 7.8 containing 0.01% Tween 80. GPK derived enzyme (25 μg/ml) was mixed with an equal volume of diluted 2-mercaptoethanol solution and the mixture incubated at 37° C. Control sample contained enzyme with an equal volume of buffer. After 15 min, 50 μl aliquot of the mixture was applied to plasminogen containing fibrin plate to assess the residual enzyme activity. The enzyme activity was also quantitated by fibrin clot lysis time method.

[4] = tested on: Plasmin; details: values quoted in literature; cited from earlier work
[5] = molecular target: Urokinase (Homo sapiens, UniProt P00749); details: values quoted in literature; cited from earlier work
[6] = tested on: Thrombin; details: values quoted in literature; cited from earlier work

T1 sequence (H0W0Z7 33-559): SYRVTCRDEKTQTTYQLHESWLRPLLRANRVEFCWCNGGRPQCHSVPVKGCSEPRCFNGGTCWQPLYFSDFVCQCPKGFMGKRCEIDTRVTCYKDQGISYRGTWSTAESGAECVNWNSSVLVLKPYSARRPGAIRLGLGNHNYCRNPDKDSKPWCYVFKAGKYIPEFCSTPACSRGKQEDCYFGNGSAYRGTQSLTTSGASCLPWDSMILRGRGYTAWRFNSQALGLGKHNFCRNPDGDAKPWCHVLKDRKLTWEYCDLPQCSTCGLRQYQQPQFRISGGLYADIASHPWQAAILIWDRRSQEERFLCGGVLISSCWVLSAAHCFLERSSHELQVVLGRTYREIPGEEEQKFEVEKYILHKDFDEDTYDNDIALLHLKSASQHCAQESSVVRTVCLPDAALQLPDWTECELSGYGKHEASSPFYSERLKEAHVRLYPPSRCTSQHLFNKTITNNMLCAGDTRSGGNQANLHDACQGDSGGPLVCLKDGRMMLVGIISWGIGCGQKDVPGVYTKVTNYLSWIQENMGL
Chain of Melanoma (malignant melanoma plasminogen activator, HEPA) (P00750 36-562): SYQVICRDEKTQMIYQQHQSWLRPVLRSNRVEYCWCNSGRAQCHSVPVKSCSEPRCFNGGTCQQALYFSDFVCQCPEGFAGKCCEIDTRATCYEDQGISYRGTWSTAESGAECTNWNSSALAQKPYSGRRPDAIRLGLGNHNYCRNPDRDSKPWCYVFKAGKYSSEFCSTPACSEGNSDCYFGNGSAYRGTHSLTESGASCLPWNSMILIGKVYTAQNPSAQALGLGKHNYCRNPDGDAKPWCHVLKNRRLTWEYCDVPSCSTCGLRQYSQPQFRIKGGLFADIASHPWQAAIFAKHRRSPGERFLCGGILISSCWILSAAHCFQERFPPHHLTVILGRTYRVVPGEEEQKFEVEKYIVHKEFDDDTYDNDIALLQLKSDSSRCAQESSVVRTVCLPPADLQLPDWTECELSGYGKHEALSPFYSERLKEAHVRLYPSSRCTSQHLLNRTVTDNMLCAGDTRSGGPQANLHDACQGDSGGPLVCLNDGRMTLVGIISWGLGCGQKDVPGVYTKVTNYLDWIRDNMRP
T2 sequence (H0W0Z7 33-559): as the sequence (H0W0Z7 33-559) above

Structure (SMILES)	Km [4] [µM]	Vmax [4]	Km [5] [µM]	Vmax [5]	Km [6] [µM]	Vmax [6]	also measured
CC(C)[C@H](NC(=O)c1ccccc1)C(=O)NCC(=O)N[C@@H](CCCNC(=N)N)C(=O)Nc1ccc([N+](=O)[O-])cc1 [Benzoyl-Val--Gly--Arg--pNA.HCl] (Bz-Val-Gly-Arg-pNA)							Vmax ([1]; pH 9.0 (line above), ionic strength I 0.0035, substrate concentration by extinction): 1.4 M/min/M enzyme; Vmax ([1]; pH 9.0, ionic strength I 0.05, 0.05M Tris-HCl, 37° C.): 1.1 M/min/M enzyme; Km [2]: 1000 µM; Vmax [2]: 0.53 M/min/IU
OCCS [2-mercaptoethanol]							proportion of the enzyme activity inhibited [3]: > 80%
CC[C@@H](C)[C@@H](N)C(=O)N1CCC[C@H]1C(=O)N[C@@H](CCCNC(=N)N)C(=O)Nc1ccc([N+](=O)[O-])cc1 [H--D--Ile--Pro--Arg--pNA.2HCl] (H-[dI]-Pro-Arg-pNA)	9000	5 m/min/U	200	2 × 10^-4 M/min/U	3	0.1 M/min/U	
CC(C)[C@H](NC(=O)[C@H](Cc1ccccc1)NC(=O)c1ccccc1)C(=O)N[C@@H](CCCNC(=N)N)C(=O)Nc1ccc([N+](=O)[O-])cc1 [Benzoyl-Phe--Val--Arg--pNa.HCl] (Bz-Phe-Val-Arg-pNA)					110	0.036 M/min/NIH.U	
N=C(N)NCCC[C@H](NC(=O)[C@H](CCC(=O)O)NC(=O)[C@@H](N)CCC(=O)O)C(=O)Nc1ccc([N+](=O)[O-])cc1 [Glu--Glu--Arg--pNA.HCl] (H-Glu-Glu-Arg-pNA)			90	3.1 × 10^-4 M/min/PLOUG.U			
CC(C)C[C@H](NC(=O)[C@H](N)C(C)C)C(=O)N[C@@H](CCCCN)C(=O)Nc1ccc([N+](=O)[O-])cc1 [H--D--Val--Leu--Lys--pNA.2HCl] (H-[dV]-Leu-Lys-pNA)	300	0.5 M/min/CU					Vmax ([1]; pH 7.4, ionic strength I 0.006, 0.05M Tris-HCl, 37° C.): 27 M/min/M enzyme; Vmax ([1]; pH 7.4, ionic strength I 0.15, 0.05M Tris-HCl, 37° C.): 14.7 M/min/M enzyme; Vmax ([1]; pH 9.0, ionic strength I 0.15, 0.05M Tris-HCl, 37° C.): 4.08 M/min/M enzyme
